Reference: patent US12214076B2, “Drug delivery vehicles for atherosclerosis nanomedicine” (Northwestern University, priority 2019, dated 2025)

Assays:
[1] = Small angle x-ray scattering (SAXS) of PA nanofibers; format: physicochemical; settings: 5 mM in PBS
Experimental: Small angle x-ray scattering (SAXS): SAXS characterization of the PA nanofibers was performed at the Advanced Photon Source in the Argonne National Laboratory on beamline 5-ID-D, DuPont-Northwestern-Dow Collaborative Access Team Synchrotron Research Center. Samples were prepared at 5 mM in PBS solution, aged at least 24 hours at 4° C., and analyzed in 1.5 mm quartz capillaries (Charles Supper) at 17 keV with a charged couple device photon detector located 245 cm behind the sample. Scattering intensities were collected using wave vector q range of 0.0024 to 0.40 Å^−1. q represents the scattering vector and is calculated as q=4π sin (θ)/λ, with θ as the scattering angle between the incident beam and detector and […] the X-ray wavelength. The plots of scattering intensity versus q were obtained using NIST software Igor Pro v8. The scattering intensities of PBS were subtracted from the PA samples using the Irena SAS macro, and the resulting plots were fitted using NCNR Analysis macro to a polydisperse core shell cylinder model.

[2] = test system: J774.2 murine macrophages; test: Nitric oxide production of stimulated macrophages; format: cell-based, mouse; settings: 24 hours, LPS and stimulated, 32 μM Ac2-26 or epitope equivalent
Experimental: Macrophage culture and characterization: J774.2 murine macrophages (Sigma-Aldrich) were expanded at 4-9×10^5 cells/mL in growth media consisting of Dulbecco's Modified Eagle's Medium (Sigma-Aldrich) containing 4.5 g/L glucose, 2 mM L-glutamine, 10% v/v FBS, 100 U/m penicillin, and 100 μg/mL streptomycin. Cells were passaged using Accutase™ (StemCell Technologies) and used at passage 6-9 for all experiments. The cells were detached with Accutase™ and gentle scraping, counted, and re-suspended in flow cytometry buffer containing 2% w/v bovine serum albumin (BSA, heat shock fraction free of proteases, globulin, and fatty acids, Sigma-Aldrich) and 0.1% w/v sodium azide (Sigma-Aldrich). To minimize non-specific binding of immunoglobin to Fc receptors, macrophages were incubated with anti-mouse CD16/32 antibody (TrueStain FcX™, Biolegend) at 1 μg/1×10^5 cells for 10 minutes at 4° C. APC anti-mouse CD11b antibody or APC Armenian hamster IgG isotype control antibody (Biolegend) were added at 0.4 μg/1×10^5 cells, FPR2 antibody (Novus Biologics) was added at […], and all samples were incubated for 30 minutes at 4° C. The cells were washed once with flow cytometry buffer by centrifugation at 300×g. FPR2 samples were further treated with goat anti-rabbit Alexa Fluor 488 secondary antibody (Invitrogen) at 2 μg/1×10^5 cells for 20 minutes at 4° C., followed by a wash step. Unstained macrophages served as controls and contained 7AAD viability staining solution (Biolegend) at 0.1 μg/1×10^5. All samples were suspended in 4% paraformaldehyde (Electron Microscopy Sciences) in PBS until analysis. […] All samples were analyzed using Attune NxT Acoustic Focusing Cytometer (Thermo Fisher) with at least 2000 events counted per condition.
Therapeutic effects of ApoA1-Ac2-26 PAs: 10% ROS- and MMP-Ac2-26 PAs, as well as Ac2-26 peptide were added together with 10 μg/mL LPS at 32 μM Ac2-26 to macrophages. […] Concerning the quantification of NO, the reducing solution made of KI in acetic acid and water provides an excess of I− that reacts with nitrite yielding ·NO. […]

[3] = TEM characterization of PA nanofibers for diameter and length (Example 3); format: physicochemical; settings: 30 measurements from three images
Experimental: Samples at 1 mM in PBS were prepared for TEM by plating on copper supports covered with thin carbon foil 400-mesh that were treated with glow discharge. […] Due to the overlapping fibers, automated tools including FiberApp could not be used to analyze the nanofibers. Instead, the TEM images were analyzed manually for nanofiber diameter and length using ImageJ software. Cryogenic TEM of samples was also performed using a JEOL 1230 at 100 kV accelerating voltage and Gatan 831 CCD camera. […] Samples were prepared at 1 mM in PBS blotted once for 3 seconds before plunging into liquid ethane using a Vitrobot Mark III (FEI) vitrification robot.

C16-V2A2 (SEQ ID NO: 8)-E2-NH2 [Diluent PA]
SAXS slope of Guinier regime in the low q region [1]: −1
macrophage activation, nitric oxide production relative to the stimulated control [2]: did not cause significant decreases in nitric oxide production
Diameter (nm) Average [3]: 12.3 nm
Diameter (nm) Median [3]: 12.4 nm
Length (nm) Average [3]: 3024.4 nm
Length (nm) Median [3]: 2541.4 nm
Diameter (nm) Average ([3]; listed as diluent): 12.3±3.1 nm
Length (nm) Median ([3]; listed as diluent): 2541 nm
